What was measured:
[1] = tested on: writhing activity of mice induced by acetic acid; test: Acetic acid writhing test in mice; assay type: in vivo, ICR mice; details: one hour after administration; for The number of writhing episodes: mice
Protocol: In the writhing test, acetic acid is injected into the intraperitoneal cavity of mice. This induces acute inflammatory pain characterized by a contraction wave of abdominal musculature through stretching of the hind limbs that is called writhing, and the number of writhing episodes is evaluated.
Male and female ICR mice weighing 18 g to 25 g were fasted for one day before the test. […] The animals were then placed in individual 101×15 cm Plexiglas observation chambers for a 10-min acclimatization period. Acetic acid, 0.8% in 0.85% saline was injected i.p. into each mouse the animals were then returned into their respective transparent chambers.
The animals were then observed for a specific period (15 or 20 mins) and the number of writhing episodes was counted. For scoring purpose, a writhe was indicated by a contraction wave of abdominal musculature with simultaneous stretching of at least one hind limb.
(§1) Values are presented as mean±SD.

[2] = tested on: rat paw edema evoked by carrageenan; test: Carrageenan induced paw edema test in rats; assay type: in vivo; details: 10 mg/kg
Protocol: (§2) The anti-inflammatory effects of above extracts of the present invention were investigated in acute inflammatory models induced by either carrageenan or egg white.
(§3) Rats received a subplantar injection of carrageenan (0.1 ml of a 1% suspension in 0.85% saline; Sigma Chemical Co., St Louis, Mo., USA) or egg white (0.1 ml of a 10% solution in 0.85% saline) in the left hind paw. The total volume injected was 0.1 ml.
(§4) Indomethacin was administered to animals in the positive control group.
(§5) The volume of paw edema (in ml) was measured in each animal using a plethysmometer (Plethysmometer 7150, Ugo Basile, Italy) to a precision of two decimal places. The measurements were made immediately before and 2, 4, 6, 24 h after the carrageenan injection or 1, 2, 3, and 4 h after the injection of egg white. The swelling rate of paw was the percentage difference in paw volume and calculated by the following equation: Swelling rate (%)=(A−B)×100/B, where A represents the paw volume at different time points after injection, and B represents the paw volume before injection.
as §1

[3] = tested on: rat paw edema evoked by egg white; test: Egg white induced paw edema test in rats; assay type: in vivo; details: 8 mg/kg
Protocol: as §2, §3, §4, §5, §1

For COc1cc2c(cc1OC)[C@@H]1Cc3ccc(OC)c(OC)c3CN1CC2 [Tetrahydropalmatine], the “The number of writhing episodes” value ([1]; 0.090 g/kg) was 11 ± 6.

COc1ccc2c(c1)c(CC(=O)O)c(C)n2C(=O)c1ccc(Cl)cc1 [Indomethacin] was tested, and the “inhibition of swelling evoked by carrageenan (in words)” value ([2]; positive control, not observed at 24 hrs after stimulation) was “inhibited the swelling within 7 hrs after drug administration”, the “Percentage change in swelling after injecting carrageenan (%) 2 hour” value ([2]; rat, 2 hour) was 12.27 ± 4.61 % and the “Percentage change in swelling after injection of carrageenan (%) 2 hour” value ([2]; rat, 2 hour (Table 13)) was 12.27 ± 4.61 %. For the same compound, the “Percentage change in swelling after injecting carrageenan (%) 4 hour” value ([2]; rat, 4 hour) was 15.12 ± 7.85 %, the “Percentage change in swelling after injection of carrageenan (%) 4 hour” value ([2]; rat, 4 hour (Table 13)) was 15.12 ± 7.85 % and the “Percentage change in swelling after injecting carrageenan (%) 6 hour” value ([2]; rat, 6 hour) was 15.32 ± 7.84 %. For the same compound, the “Percentage change in swelling after injection of carrageenan (%) 6 hour” value ([2]; rat, 6 hour (Table 13)) was 15.32 ± 7.84 %, the “Percentage change in swelling after injecting carrageenan (%) 24 hour” value ([2]; rat, 24 hour) was 35.36 ± 14.65% and the “Percentage change in swelling after injection of carrageenan (%) 24 hour” value ([2]; rat, 24 hour (Table 13)) was 35.36 ± 14.65%.

With COC1=C[C@@H]2[C@@H]3Cc4ccc(OC)c(O)c4[C@]2(CCN3C)CC1=O [Sinomenine] the “The number of writhing episodes” value ([1]; 0.0375 g/kg) was 25 ± 9 and the “inhibition to the writhing activity of mice induced by acetic acid (in words)” value ([1]; tetrahydropalmatine 0.09 g/kg, sinomenine 0.0375 g/kg, capsule 12.7 g/kg and 25.50 g/kg) was “significant compared to control group”.

For C[C@@H]1C[C@H]2[C@@H]3CCC4=CC(=O)C=C[C@]4(C)[C@@]3(F)[C@@H](O)C[C@]2(C)[C@@]1(O)C(=O)CO [Dexamethasone], the “Swelling percentage of paw volume after stimulation (%) 1 hr” value ([3]; 1 hr) was 26.66 ± 3.34 %, the “Swelling percentage of paw volume after stimulation (%) 2 hr” value ([3]; 2 hr) was 19.31 ± 5.83 % and the “Swelling percentage of paw volume after stimulation (%) 3 hr” value ([3]; 3 hr) was 9.12 ± 4.42 %. For the same compound, the “Swelling percentage of paw volume after stimulation (%) 4 hr” value ([3]; 4 hr) was 7.49 ± 4.08%.
